Source: patent publication US20120101110A1, “Diaza-spiro[5.5]undecanes” (priority 2010, published 2012)

What was measured:
human orexin 2 receptors = biological target: T1, human orexin 2 receptors (Homo sapiens, UniProt O43614); assay: Calcium accumulation in cells (FLIPR), hOx2R; format: cell-based; settings: cells expressing human orexin 2 receptor; inhibition of orexin A-induced calcium accumulation; Cheng and Prusoff correction
T1 sequence (O43614 1-444): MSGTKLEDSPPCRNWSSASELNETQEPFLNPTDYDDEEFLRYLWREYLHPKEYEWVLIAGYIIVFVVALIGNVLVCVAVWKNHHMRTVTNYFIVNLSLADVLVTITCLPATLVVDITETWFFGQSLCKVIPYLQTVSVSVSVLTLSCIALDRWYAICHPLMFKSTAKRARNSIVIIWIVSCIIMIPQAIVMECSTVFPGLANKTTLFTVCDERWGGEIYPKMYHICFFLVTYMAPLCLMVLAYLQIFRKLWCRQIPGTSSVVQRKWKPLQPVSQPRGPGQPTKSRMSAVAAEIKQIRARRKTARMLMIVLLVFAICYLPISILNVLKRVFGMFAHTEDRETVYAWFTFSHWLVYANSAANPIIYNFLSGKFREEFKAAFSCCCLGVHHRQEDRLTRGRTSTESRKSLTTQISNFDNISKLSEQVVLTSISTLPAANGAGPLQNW

human orexin 1 receptors = biological target: T2, human orexin 1 receptors (Homo sapiens, UniProt O43613); assay: Calcium accumulation in cells (FLIPR), hOx1R; settings: for inhibition at 10 µM: read-out: FLIPR hOx1R % inhibition value
T2 sequence (O43613 1-425): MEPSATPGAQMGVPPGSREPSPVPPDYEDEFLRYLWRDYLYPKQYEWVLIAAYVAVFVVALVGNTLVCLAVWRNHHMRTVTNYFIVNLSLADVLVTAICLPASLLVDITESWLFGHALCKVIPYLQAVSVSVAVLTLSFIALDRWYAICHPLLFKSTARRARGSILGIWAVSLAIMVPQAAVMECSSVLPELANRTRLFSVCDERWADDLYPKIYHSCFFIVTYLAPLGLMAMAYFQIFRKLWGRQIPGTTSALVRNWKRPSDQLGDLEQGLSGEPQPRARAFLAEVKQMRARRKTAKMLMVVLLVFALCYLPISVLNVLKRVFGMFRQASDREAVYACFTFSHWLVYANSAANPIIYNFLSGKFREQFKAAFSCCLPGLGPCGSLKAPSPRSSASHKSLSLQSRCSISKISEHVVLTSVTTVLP
Method: Cells expressing human orexin 1 or human orexin 2 receptors, were seeded at 8,000 cells/well in 384 well black-walled clear bottom, poly-D-lysine coated plates. After 24 h, the medium was removed and cells were washed once with phosphate buffered saline and serum-deprived overnight in assay buffer (130 mM NaCl, 5.4 mM KCl, 1.8 mM CaCl2, 0.8 mM MgSO4, 0.9 mM NaH2PO4, 25 mM glucose, 20 mM HEPES, pH 7.4) containing bovine serum albumin (1% w/v).
On the day of the experiment, the cells seeded in black plates were treated with assay buffer containing the Ca^2+sensitive fluorescent dye Fluo-4-AM (2 μM), and probenecid (0.1 mM). After 1 h plates were washed twice with, and resuspended in, assay buffer containing probenecid (0.1 mM) using a multi plate washer. The plates were placed into a FLIPR II (Fluorometric Imaging Plate Reader, Molecular Devices, Sunnyvale, Calif., USA) and baseline fluorescence (fluorescence light units, FLU) was measured (5 measurements, 2 S each; laser excitation 488 nm at 0.6-1 W, CCD camera exposure 0.4 s) before addition of buffer alone (basal) or containing test compounds (either compound of formula I alone, agonist alone or agonist in the presence of various concentrations of compounds of formula I). Fluorescence measurements were then continued every 1 S for 120 S followed by every 4 S for 240 S.
Compounds of formula I were tested usually in a concentration range from 10^−9 M to 10^−5 M. In the second round, performed one hour later (to allow for equilibration), Orexin A was tested either in the absence (calibration curves, Orexin A agonist controls) or in the presence of compounds of formula I to determine antagonism.
Inhibition data is expressed in Table 2 as Ki [μM], converted by the Cheng and Prusoff correction (Ki=IC50/1+(L/EC50)), where IC50 is the 50% inhibition value determined in concentration response inhibition curves, EC50 is the half maximal activation concentration determined for orexin A in concentration response curves and L is the concentration of orexin A used in inhibition experiments performed in with a submaximal concentration of orexin A in the presence of up to 8 increasing concentrations of compound of formula I. Inhibition data is also expressed in Table 2 as % inhibition value measured at a concentration of 10 μM of selected compounds of formula I.

| Structure (SMILES) | Ki (human orexin 2 receptors) [nM] | inhibition at 10 µM (human orexin 1 receptors) [%] | Ki (human orexin 1 receptors) [nM] |
| --- | --- | --- | --- |
| COc1cncc(N2CCC3(CCCN(Cc4c[nH]c5ncccc45)C3=O)CC2)n1 [Example 8, 2-((1H-pyrrolo[2,3-b]pyridin-3-yl)methyl)-9-(6-methoxypyrazin-2-yl)-2,9-diazaspiro[5.5]undecan-1-one] | 276 | 31 | – |
| N#Cc1ccc(N2CCC3(CCCC(=O)N3Cc3cccc4[nH]ccc34)CC2)nc1 [Example 14, 6-(1-((1H-indol-4-yl)methyl)-2-oxo-1,9-diazaspiro[5.5]undecan-9-yl)nicotinonitrile] | 200 | 13 | – |
| Cc1ccnc(N2CCC3(CCCC(=O)N3Cc3ccccc3-n3nccn3)CC2)n1 [Example 16, 1-(2-(2H-1,2,3-triazol-2-yl)benzyl)-9-(4-methylpyrimidin-2-yl)-1,9-diazaspiro[5.5]undecan-2-one] | 270 | 31 | – |
| Cc1nnc(N2CCC3(CCCN(Cc4c[nH]c5ccccc45)C3=O)CC2)o1 [Example 17, 2-((1H-indol-3-yl)methyl)-9-(5-methyl-1,3,4-oxadiazol-2-yl)-2,9-diazaspiro[5.5]undecan-1-one] | – | 12 | – |
| O=C1N(Cc2c[nH]c3ncccc23)CCCC12CCN(c1cncc(Cl)n1)CC2 [Example 18, 2-((1H-pyrrolo[2,3-b]pyridin-3-yl)methyl)-9-(6-chloropyrazin-2-yl)-2,9-diazaspiro[5.5]undecan-1-one] | 123 | – | 3200 |
| Cc1cncc(N2CCC3(CCCN(Cc4c[nH]c5ncccc45)C3=O)CC2)n1 [Example 19, 2-((1H-pyrrolo[2,3-b]pyridin-3-yl)methyl)-9-(6-methylpyrazin-2-yl)-2,9-diazaspiro[5.5]undecan-1-one] | 147 | 31 | – |
| Cc1cc(C)nc(N2CCC3(CCCN(Cc4c(-c5ccccc5)noc4C)C3=O)CC2)n1 [Example 23, 9-(4,6-dimethylpyrimidin-2-yl)-2-((5-methyl-3-phenylisoxazol-4-yl)methyl)-2,9-diazaspiro[5.5]undecan-1-one] | 115 | – | 2880 |
| Cc1ccnc(N2CCC3(CCCN(Cc4ccccc4-n4nccn4)C3=O)CC2)n1 [Example 24, 2-(2-(2H-1,2,3-triazol-2-yl)benzyl)-9-(4-methylpyrimidin-2-yl)-2,9-diazaspiro[5.5]undecan-1-one] | 509 | < 10 | – |
| N#Cc1cccc(N2CCC3(CCCN(Cc4ccccc4-n4nccn4)C3=O)CC2)n1 [Example 26, 6-(2-(2-(2H-1,2,3-triazol-2-yl)benzyl)-1-oxo-2,9-diazaspiro[5.5]undecan-9-yl)picolinonitrile] | – | < 10 | – |
| N#Cc1ccnc(N2CCC3(CCCN(Cc4ccccc4-n4nccn4)C3=O)CC2)c1 [Example 27, 2-(2-(2-(2H-1,2,3-triazol-2-yl)benzyl)-1-oxo-2,9-diazaspiro[5.5]undecan-9-yl)isonicotinonitrile] | 645 | < 10 | – |
| Cc1ccnc(N2CCC3(CCCN(Cc4cccc(-c5ncccn5)c4)C3=O)CC2)n1 [Example 30, 9-(4-methylpyrimidin-2-yl)-2-(3-(pyrmidin-2-yl)benzyl)-2,9-diazaspiro[5.5]undecan-1-one] | 686 | 48 | – |
| CN(C)c1ccnc(N2CCC3(CCCN(Cc4c[nH]c5ccccc45)C3=O)CC2)n1 [Example 46, 2-((1H-indol-3-yl)methyl)-9-(4-(dimethylamino)pyrimidin-2-yl)-2,9-diazaspiro[5.5]undecan-1-one] | 143 | 25 | – |
| COc1nccc(N2CCC3(CCCN(Cc4c[nH]c5ccccc45)C3=O)CC2)n1 [Example 47, 2-((1H-indol-3-yl)methyl)-9-(2-methoxypyrimidin-4-yl)-2,9-diazaspiro[5.5]undecan-1-one] | 630 | 25 | – |
| O=C1N(Cc2c[nH]c3ccccc23)CCCC12CCN(c1ccnc(Cl)n1)CC2 [Example 48, 2-((1H-indol-3-yl)methyl)-9-(2-chloropyrimidin-4-yl)-2,9-diazaspiro[5.5]undecan-1-one] | 152 | – | 3150 |
| O=C1N(Cc2c[nH]c3ccccc23)CCCC12CCN(c1nccc(C(F)(F)F)n1)CC2 [Example 49, 2-((1H-indol-3-yl)methyl)-9-(4-(trifluoromethyl)pyrimidin-2-yl)-2,9-diazaspiro[5.5]undecan-1-one] | 190 | – | 2180 |
| CC(C)c1ccnc(N2CCC3(CCCN(Cc4c[nH]c5ccccc45)C3=O)CC2)n1 [Example 50, 2-((1H-indol-3-yl)methyl)-9-(4-isopropylpyrimidin-2-yl)-2,9-diazaspiro[5.5]undecan-1-one] | 223 | – | 1860 |

| Structure (SMILES) | Ki (human orexin 2 receptors) [nM] | inhibition at 10 µM (human orexin 1 receptors) [%] | Ki (human orexin 1 receptors) [nM] |
| --- | --- | --- | --- |
| CCOc1ccnc(N2CCC3(CCCN(Cc4c[nH]c5ccccc45)C3=O)CC2)n1 [Example 52, 2-((1H-indol-3-yl)methyl)-9-(4-ethoxypyrimidin-2-yl)-2,9-diazaspiro[5.5]undecan-1-one] | 125 | – | 1060 |
| Cn1cc(CN2CCCC3(CCN(c4cncc(Cl)n4)CC3)C2=O)c2ccccc21 [Example 53, 9-(6-chloropyrazin-2-yl)-2-((1-methyl-1H-indol-3-yl)methyl)-2,9-diazaspiro[5.5]undecan-1-one] | 420 | – | 2740 |
| CCn1cc(CN2CCCC3(CCN(c4nc(C)cc(C)n4)CC3)C2=O)c2ccccc21 [Example 54, 9-(4,6-dimethylpyrimidin-2-yl)-2-((1-ethyl-1H-indol-3-yl)methyl)-2,9-diazaspiro[5.5]undecan-1-one] | 149 | – | 3150 |
| COc1cncc(N2CCC3(CCCC(=O)N3Cc3c[nH]c4ccccc34)CC2)n1 [Example 55, 1-((1H-indol-3-yl)methyl)-9-(6-methoxypyrazin-2-yl)-1,9-diazaspiro[5.5]undecan-2-one] | 727 | 40 | – |
| COc1cncc(N2CCC3(CCCN(Cc4cccc5c4OCCO5)C3=O)CC2)n1 [Example 56, 2-((2,3-dihydrobenzo[b][1,4]dioxin-5-yl)methyl)-9-(6-methoxypyrazin-2-yl)-2,9-diazaspiro[5.5]undecan-1-one] | 718 | 35 | – |
| Cc1cccc(N2CCC3(CCCN(Cc4c[nH]c5ccccc45)C3=O)CC2)c1 [Example 57, 2-((1H-indol-3-yl)methyl)-9-m-tolyl-2,9-diazaspiro[5.5]undecan-1-one] | 171 | – | 3750 |
| COc1cc(N2CCC3(CCCN(Cc4c[nH]c5ccccc45)C3=O)CC2)ccn1 [Example 61, 2-((1H-indol-3-yl)methyl)-9-(2-methoxypyridin-4-yl)-2,9-diazaspiro[5.5]undecan-1-one] | – | – | 3840 |
| O=C1N(Cc2c[nH]c3ccccc23)CCCC12CCN(c1cccc(O)n1)CC2 [Example 84, 2-((1H-indol-3-yl)methyl)-9-(6-hydroxypyridin-2-yl)-2,9-diazaspiro[5.5]undecan-1-one] | – | 24 | – |
| Cc1ccnc(N2CCC3(CCCC(=O)N3Cc3ccc(-c4ncccn4)cc3)CC2)n1 [Example 90, 9-(4-methylpyrimidin-2-yl)-1-(4-(pyrimidin-2-yl)benzyl)-1,9-diazaspiro[5.5]undecan-2-one] | – | < 10 | – |
| Cc1ccnc(N2CCC3(CCCC(=O)N3Cc3cccc(-n4nccn4)c3)CC2)n1 [Example 94, 1-(3-(2H-1,2,3-triazol-2-yl)benzyl)-9-(4-methylpyrimidin-2-yl)-1,9-diazaspiro[5.5]undecan-2-one] | – | 36 | – |
| Cc1ccnc(N2CCC3(CCCC(=O)N3Cc3nnc(-c4ccccc4)o3)CC2)n1 [Example 95, 9-(4-methylpyrimidin-2-yl)-1-((5-phenyl-1,3,4-oxadiazol-2-yl)methyl)-1,9-diazaspiro[5.5]undecan-2-one] | – | 10 | – |
| Cc1ccnc(N2CCC3(CCCC(=O)N3Cc3cccc(-c4nc(C)no4)c3)CC2)n1 [Example 97, 1-(3-(3-methyl-1,2,4-oxadiazol-5-yl)benzyl)-9-(4-methylpyrimidin-2-yl)-1,9-diazaspiro[5.5]undecan-2-one] | – | 15 | – |
| Cc1ccnc(N2CCC3(CCCC(=O)N3Cc3cccc(N4CCCC4)n3)CC2)n1 [Example 98, 9-(4-methylpyrimidin-2-yl)-1-((6-(pyrrolidin-1-yl)pyridin-2-yl)methyl)-1,9-diazaspiro[5.5]undecan-2-one] | – | < 10 | – |
| Cc1cc(N2CCC3(CCCN(Cc4c[nH]c5ccccc45)C3=O)CC2)ccn1 [Example 100, 2-((1H-indol-3-yl)methyl)-9-(2-methylpyridin-4-yl)-2,9-diazaspiro[5.5]undecan-1-one] | – | < 10 | – |
| Cc1ccnc(N2CCC3(CCCC(=O)N3Cc3cc(C#N)ccc3F)CC2)n1 [Example 101, 4-fluoro-3-((9-(4-methylpyrimidin-2-yl)-2-oxo-1,9-diazaspiro[5.5]undecan-1-yl)methyl)benzonitrile] | – | < 10 | – |
